Experimental data published in US10793557B2, “Sting agonist compounds” (Merck Sharp & Dohme Corp., priority 2018, dated 2020).

Columns and labels:
full-length HAQ STING = target: T1, full-length HAQ STING (Homo sapiens, UniProt Q86WV6, G230A/H232R/R293Q/R71H); experiment: 3H-cGAMP filtration binding assay (HAQ STING); conditions: for EC50: competition with tritiated cGAMP, HAQ STING membrane
T1 construct: AviTag (after GG linker) (C); HRV3C cleavage site (after GS linker) (C); HIS8 (C); made in house; host or cells: Trichoplusia ni (Hi-Five) insect cells infected with baculovirus (virus generated and amplified in Sf21 cells); used as a washed membrane preparation
T1 sequence (Q86WV6 with tags, fused parts or gaps R71H/G230A/H232R/R293Q): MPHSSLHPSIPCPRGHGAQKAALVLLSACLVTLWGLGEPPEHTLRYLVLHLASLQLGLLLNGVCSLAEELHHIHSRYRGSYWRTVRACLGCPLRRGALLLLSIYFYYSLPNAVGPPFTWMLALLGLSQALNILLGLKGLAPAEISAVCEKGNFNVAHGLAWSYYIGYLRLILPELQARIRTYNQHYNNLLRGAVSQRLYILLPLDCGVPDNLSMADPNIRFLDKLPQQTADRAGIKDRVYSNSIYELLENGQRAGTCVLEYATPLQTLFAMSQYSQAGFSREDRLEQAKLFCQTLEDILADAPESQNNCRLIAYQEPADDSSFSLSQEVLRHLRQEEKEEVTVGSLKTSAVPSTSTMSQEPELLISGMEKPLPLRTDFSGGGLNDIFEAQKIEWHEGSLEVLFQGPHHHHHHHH
Method in brief: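 Hi-Five (T. ni) membranes overexpressing the STING variant (2.2 ug/ml working) preincubated with compound 60 min at RT in PBS, then [3H]cGAMP (8 nM working stock) added for 60 min at RT. Bound radioactivity captured on GF/B filters and counted by scintillation; EC50 from 4-parameter fit of control-normalized activity.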

full-length WT STING = target: T2, full-length WT STING (Homo sapiens, UniProt Q86WV6, H232R); experiment: 3H-cGAMP filtration binding assay (WT STING); conditions: for EC50: competition with tritiated cGAMP, WT STING membrane; for inhibition at 2 µM: at 2,000 nM compound
T2 construct: AviTag (after gg linker) (C); HRV3C cleavage site (after gs linker) (C); HIS8 (C); made in house; host or cells: Trichoplusia ni (Hi-Five) insect cells infected with baculovirus (virus generated and amplified in Sf21 cells); used as a washed membrane preparation
T2 sequence (Q86WV6 with tags, fused parts or gaps H232R): as the sequence (Q86WV6 with tags, fused parts or gaps R71H/G230A/H232R/R293Q) above, with H71R, A230G, Q293R counted along it
Method in brief: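 EC50 values come from 4-parameter fits of remaining filter-bound tritium versus log concentration (10-point, 1:3 dilution). Insect-cell membranes carrying full-length WT STING were incubated 60 min at RT with compound and tritiated cGAMP (16 nM working stock) before filtration.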

[1] = test system: secretion of interferon-beta from THP1 cells; experiment: IFN-β secretion in THP1 cell culture (5 h); format: cell-based; conditions: Homo sapiens, THP-1, 5 h, 30 uM cGAMP = 100%; for activation at 30 µM: compound at 30 μM, read-out: % Effect at 30 μM relative to 2′3′-cGAMP; for activation at 3 µM: compound at 3 uM, read-out: % Effect relative to 2′3′-cGAMP (@ 3 uM)
Method in brief: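 IFN-β in supernatant measured by AlphaLISA after a 5 h, 37 °C incubation of THP1 cells with compound (10 concentrations, 30000 down to 1.5 nM, 0.3% DMSO) in low-serum RPMI. Values scaled between DMSO and 30 uM cGAMP controls; 4-parameter curve fit yields EC50.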

SMILES	EC50 (full-length HAQ STING)	EC50 (full-length WT STING)	activation at 30 µM [1]	inhibition at 7 µM (full-length WT STING; at 7,000 nM compound)	activation at 3 µM [1]	inhibition at 2 µM (full-length WT STING)	inhibition at 2 µM (full-length HAQ STING; at 2,000 nM compound)
COc1cc2sc(C(=O)C[C@H](C)C(=O)O)cc2c(Cl)c1OCCCOc1c(OC)cc2sc(C(=O)C[C@H](C)C(=O)O)cc2c1Cl [Example 132, (2S,2′S)-4,4′-(5,5′-(propane-1,3-diylbis(oxy))bis(4-chloro-6-methoxybenzo[b]thiophene-5,2-diyl))bis(2-methyl-4-oxobutanoic acid)]	3 nM	10 nM	131%				
COc1cc2sc(C(=O)C[C@H](C)C(=O)O)cc2c(Cl)c1OCCCOc1c(OC)cc2sc(C(=O)C[C@H](C)C(=O)O)cc2c1Br [Example 133, (S)-4-(5-(3-((4-bromo-2-((S)-3-carboxybutanoyl)-6-methoxybenzo[b]thiophen-5-yl)oxy)propoxy)-4-chloro-6-methoxybenzo[b]thiophen-2-yl)-2-methyl-4-oxobutanoic acid]	15 nM	147 nM	80%				
COc1cc2sc(C(=O)C[C@H](C)C(=O)O)cc2c(Br)c1OCCCOc1c(OC)cc2sc(C(=O)C[C@H](C)C(=O)O)cc2c1Br [Example 134, (2S,2′S)-4,4′-(5,5′-(propane-1,3-diylbis(oxy))bis(4-bromo-6-methoxybenzo[b]thiophene-5,2-diyl))bis(2-methyl-4-oxobutanoic acid)]	22 nM	233 nM	89%				
COc1cc2sc(C[C@@H]3CC[C@H]3C(=O)O)cc2c(F)c1OCCCOc1c(OC)cc2sc(C(=O)C[C@H](C)C(=O)O)cc2c1F [Example 135, 2-((5-(3-((2-((S)-3-carboxybutanoyl)-4-fluoro-6-methoxybenzo[b]thiophen-5-yl)oxy)propoxy)-4-fluoro-6-methoxybenzo[b]thiophen-2-yl)methyl)cyclo-butanecarboxylic acid]	1 nM	5 nM	100%				
COc1cc2sc(C[C@@H]3CC[C@H]3C(=O)O)cc2c(F)c1OCCCCOc1c(OC)cc2sc(C(=O)C[C@H](C)C(=O)O)cc2c1F [Example 136, 2-((5-(4-((2-((S)-3-carboxybutanoyl)-4-fluoro-6-methoxybenzo[b]thiophen-5-yl)oxy)butoxy)-4-fluoro-6-methoxybenzo[b]thiophen-2-yl)methyl)cyclo-butanecarboxylic acid]	314 nM	10300 nM	37%				
COc1cc2sc(C(=O)C[C@H](C)C(=O)O)cc2c(F)c1OCCCOc1c(OC)c(Cl)c2sc(C(=O)C[C@H](C)C(=O)O)cc2c1Cl [Example 137, (S)-4-(5-(3-((2-((S)-3-carboxybutanoyl)-4,7-dichloro-6-methoxybenzo[b]thiophen-5-yl)oxy)propoxy)-4-fluoro-6-methoxybenzo[b]thiophen-2-yl)-2-methyl-4-oxobutanoic acid]	40 nM	319 nM	155%				
COc1cc2sc(C(=O)C[C@H](C)C(=O)O)cc2c(F)c1OCCC(C)Oc1c(OC)cc2sc(C(=O)C[C@H](C)C(=O)O)cc2c1F (stereo partly drawn) [Example 138, (2S,2′S)-4,4′-((butane-1,3-diylbis(oxy))bis(4-fluoro-6-methoxybenzo[b]thiophene-5,2-diyl))bis(2-methyl-4-oxobutanoic acid)]	2 nM	2 nM	89%				
COc1cc2sc(C(=O)C[C@H](C)C(=O)O)cc2c(F)c1OCCCC(C)Oc1c(OC)cc2sc(C(=O)C[C@H](C)C(=O)O)cc2c1F (stereo partly drawn) [Example 139, (2S,2′S)-4,4′-((pentane-1,4-diylbis(oxy))bis(4-fluoro-6-methoxybenzo[b]thiophene-5,2-diyl))bis(2-methyl-4-oxobutanoic acid)]	3 nM	12 nM	57%				
COc1cc2sc(C(=O)C[C@H](C)C(=O)O)cc2c(F)c1OC(C)CCC(C)Oc1c(OC)cc2sc(C(=O)C[C@H](C)C(=O)O)cc2c1F (stereo partly drawn) [Example 140, (2S,2′S)-4,4′-((hexane-2,5-diylbis(oxy))bis(4-fluoro-6-methoxybenzo[b]thiophene-5,2-diyl))bis(2-methyl-4-oxobutanoic acid)]	2150 nM			28%	31%		
COc1cc2sc(C(=O)C[C@H](C)C(=O)O)cc2c(F)c1OCC(C)COc1c(OC)cc2sc(C(=O)C[C@H](C)C(=O)O)cc2c1F [Example 142, (2S,2′S)-4,4′-(((2-methylpropane-1,3-diyl)bis(oxy))bis(4-fluoro-6-methoxybenzo[b]thiophene-5,2-diyl))bis(2-methyl-4-oxobutanoic acid)]	1 nM	1 nM	81%				
COc1cc2sc(C(=O)C[C@H](C)C(=O)O)cc2c(F)c1OCC(C)(C)COc1c(OC)cc2sc(C(=O)C[C@H](C)C(=O)O)cc2c1F [Example 143, (2S,2′S)-4,4′-(((2,2-dimethylpropane-1,3-diyl)bis(oxy))bis(4-fluoro-6-methoxybenzo[b]thiophene-5,2-diyl))bis(2-methyl-4-oxobutanoic acid)]	75 nM	1450 nM			26%		
COc1cc2sc(C(=O)C[C@H](C)C(=O)O)cc2c(F)c1OCC1(COc2c(OC)cc3sc(C(=O)C[C@H](C)C(=O)O)cc3c2F)CC1 [Example 144, (2S,2′S)-4,4′-(((cyclopropane-1,1-diylbis-(methylene))bis (oxy))bis(4-fluoro-6-methoxybenzo[b]thiophene-5,2-diyl))bis(2-methyl-4-oxobutanoic acid)]	15 nM	93 nM	8%				
COc1cc2sc(CC[C@H](C)C(=O)O)cc2cc1OCCCOc1c(OC)cc2sc(C(=O)C[C@H](C)C(=O)O)cc2c1Cl [Example 145, (S)-4-(5-(3-((2-((S)-3-carboxybutyl)-6-methoxybenzo[b]thiophen-5-yl)oxy)propoxy)-4-chloro-6-methoxybenzo[b]thiophen-2-yl)-2-methyl-4-oxobutanoic acid]	143 nM				59%	47%	
COc1cc2sc(CC[C@H](C)C(=O)O)cc2cc1OCCCOc1c(OC)cc2sc(C(=O)C[C@H](C)C(=O)O)cc2c1Br [Example 146, (S)-4-(4-bromo-5-(3-((2-((S)-3-carboxybutyl)-6-methoxybenzo[b]thiophen-5-yl)oxy)propoxy)-6-methoxybenzo[b]thiophen-2-yl)-2-methyl-4-oxobutanoic acid]					27%	18%	55%
COc1cc2sc(CC[C@H](C)C(=O)O)cc2c(F)c1OCCCOc1c(OC)cc2sc(C(=O)C[C@H](C)C(=O)O)cc2c1Cl [Example 147, (S)-4-(5-(3-((2-((S)-3-carboxybutyl)-4-fluoro-6-methoxybenzo[b]thiophen-5-yl)oxy)propoxy)-4-chloro-6-methoxybenzo[b]thiophen-2-yl)-2-methyl-4-oxobutanoic acid]	18 nM	207 nM			71%		
COc1cc2sc(CC[C@H](C)C(=O)O)cc2c(F)c1OCCCOc1c(OC)cc2sc(C(=O)C[C@H](C)C(=O)O)cc2c1Br [Example 148, (S)-4-(4-bromo-5-(3-((2-((S)-3-carboxybutyl)-4-fluoro-6-methoxybenzo[b]thiophen-5-yl)oxy)propoxy)-6-methoxybenzo[b]thiophen-2-yl)-2-methyl-4-oxobutanoic acid]	395 nM	411 nM			41%		
COc1cc2sc(CCC(C)(C)C(=O)O)cc2c(F)c1OCCCOc1c(OC)cc2sc(C(=O)CC(C)(C)C(=O)O)cc2c1F [Example 149, 4-(5-(3-((2-(3-carboxy-3-methylbutyl)-4-fluoro-6-methoxybenzo[b]thiophen-5-yl)oxy)propoxy)-4-fluoro-6-methoxybenzo[b]thiophen-2-yl)-2,2-dimethyl-4-oxobutanoic acid]	4 nM	46 nM			70%		
COc1cc2sc(C(=O)C[C@H](C)C(=O)O)cc2cc1OCCCOc1c(OC)cc2sc(CC[C@H](C)C(=O)O)cc2c1Cl [Example 150, (S)-4-(5-(3-((2-((S)-3-carboxybutyl)-4-chloro-6-methoxybenzo[b]thiophen-5-yl)oxy)propoxy)-6-methoxybenzo[b]thiophen-2-yl)-2-methyl-4-oxobutanoic acid]	213 nM	1040 nM			52%		
COc1cc2sc(C(=O)C[C@H](C)C(=O)O)cc2c(F)c1OCCCOc1c(OC)cc2sc(CC[C@H](C)C(=O)O)cc2c1Cl [Example 151, (S)-4-(5-(3-((2-((S)-3-carboxybutyl)-4-chloro-6-methoxybenzo[b]thiophen-5-yl)oxy)propoxy)-4-fluoro-6-methoxybenzo[b]thiophen-2-yl)-2-methyl-4-oxobutanoic acid]	77 nM	1040 nM			63%		
